Results from patent US9480712B2, “Biomedical composition” (INDUSTRIAL TECHNOLOGY RESEARCH INSTITUTE, priority 2013, dated 2016).

Key:
U87MC cells = test: Cytotoxicity analysis (MTT); type: cell-based; conditions: Homo sapiens, U-87 MG, U87 cells, 48 hours
Protocol: U87 cells were inoculated in a 96-well culture plate with a density of 1×10^4 cells/well, and cultured in a 37° C., 5% CO2 incubator for 1 day. […] Next, the old medium was removed from the culture plate and the culture plate was washed with medium three times. After the medium was removed from the culture plate, 100 μL of 0.5 mg/mL MTT reagent was added to the plate, and the culture plate was incubated at 37° C. for 4 hours. Then, the old medium was removed and 100 μL of 0.1 N HCl/isopropanol was added to the culture plate to dissolve the precipitate. Finally, the culture plate was placed in a ELISA reader to determine the absorbance at wavelength 570 nm, and the absorbance was converted into cell viability based on the following formula: Cell viability (%)=Intensity of sample/Intensity of control×100%.

[1] = system: HT-29 cells, human colon adenocarcinoma cell line; test: Tumor growth inhibition in nude mice implanted with HT-29 cells; type: in vivo; conditions: 2 mg Pt/kg, tail vein, twice a week, 6 doses; day 14 to day 42
Protocol: HT-29 cells, human colon adenocarcinoma cell line, were implanted into the backs of nude mice. After the size of the tumor reached 100-200 mm^3, the mice were administered hyaluronic acid derivative/DACHPt complex nano-carriers formed by Formulation PtHC604 (2 mg Pt/kg), oxaliplatin (2 mg Pt/kg) or 10% sucrose through tail vein injections twice a week, for a total of 6 doses. The size changes of the tumors were measured, regularly, and tumor growth inhibition (TGI) rate was calculated. Calculation formula is as follows: Tumor growth inhibition (TGI) (%)=[1−(Δ Tumor volume for drug treatment group/Δ Tumor volume for vehicle treatment group)]×100

[2] = Concentration of Pt in rat plasma by ICP-AES, pharmacokinetic parameters; type: in vivo, rats; conditions: 0.5 mg/rat
Protocol: The rats were grouped, and 0.5 mg/rat oxaliplatin, Formulations PtHC101, PtHC305 and PtHC603, were respectively administered. After that, at different time points the blood samples were sampled from the rats, the concentrations of Pt in the plasma were analyzed by inductively coupled plasma with atomic emission spectroscopy (ICP-AES), and the original drug concentration in blood (CO), half-life (T ½), area under curve (AUC), volume of distribution (Vz), and clearance (Cl) of each formulation were calculated.

| SMILES | IC50 (U87MC cells) | tumor growth inhibition (TGI) rate [1] | AUClast [2] | C0 [2] | Cl_pred [2] | HL_Lambda_z [2] | Vz_pred [2] |
| --- | --- | --- | --- | --- | --- | --- | --- |
| COc1cccc2c1C(=O)c1c(O)c3c(c(O)c1C2=O)C[C@@](O)(C(=O)CO)C[C@@H]3O[C@H]1C[C@H](N)[C@H](O)[C@H](C)O1 [Doxorubicin, doxorubicin] | 100 nM | – | – | – | – | – | – |
| O=C1[O][Pt]2([NH][C@@H]3CCCC[C@H]3[NH]2)[O]C1=O [Oxaliplatin, oxaliplatin] | – | 42±8% | 4202.6 ± 1280.2 ng·h/mL | 6317.9 ± 4430.9 ng/mL | 3.695 ± 1.13 mL/min/kg | 8.2 ± 1.1 h | 2.6208 ± 0.8685 L/kg |
